Patent US8026359B2, “Fungicidal heterocyclic amines” (E.I. du Pont de Nemours and Company, priority 2007, dated 2011)

What was measured:
Assay type in all cases: in vivo
[1] = system: Puccinia recondita f. sp. tritici; experiment: Test B: wheat leaf rust, preventive spray on wheat seedlings; conditions: 200 ppm, 100 = 100% disease control, 0 = no control relative to controls; for pest or weed control at 200 ppm: Puccinia recondita, 192 h, read-out: Test B disease control rating
From the text: (§1) General protocol for preparing test suspensions for Tests A-R: The test compounds were first dissolved in acetone in an amount equal to 3% of the final volume and then suspended at the desired concentration (in ppm) in acetone and purified water (50/50 mix) containing 250 ppm of the surfactant Trem® 014 (polyhydric alcohol esters). The resulting test suspensions were then used in tests A-R. In Tests A-M, compounds were sprayed as a 200 ppm test suspension (equivalent to a rate of 500 g/ha) or as a 40 ppm test suspension to the point of runoff on the test plants. In Tests N-R, compounds were sprayed as a 100 g/ha test suspension (equivalent to a rate of 100 ppm) on the test plants at an application volume of 1000 L/ha. The test suspension was sprayed to the point of run-off on wheat seedlings.

Botrytis cinerea = experiment: Test F: tomato Botrytis, preventive spray on tomato seedlings; conditions: 200 ppm, 100 = 100% disease control, 0 = no control relative to controls; for pest or weed control at 200 ppm: Botrytis cinerea, 120 h, read-out: Test F disease control rating
From the text: as §1, with “tomato” for “wheat”

Septoria nodorum = experiment: Test C: wheat glume blotch, preventive spray on wheat seedlings; conditions: 200 ppm, 100 = 100% disease control, 0 = no control relative to controls; for pest or weed control at 200 ppm: Parastagonospora nodorum, 216 h, read-out: Test C disease control rating
From the text: as §1

[2] = system: Erysiphe graminis f. sp. tritici; experiment: Test A: wheat powdery mildew, preventive spray on wheat seedlings; conditions: 200 ppm, 100 = 100% disease control, 0 = no control relative to controls; for pest or weed control at 200 ppm: Blumeria graminis, 192 h, read-out: Test A disease control rating
From the text: as §1

Septoria tritici = experiment: Test D: wheat leaf blotch, preventive spray on wheat seedlings; conditions: 200 ppm, 100 = 100% disease control, 0 = no control relative to controls; for pest or weed control at 200 ppm: Zymoseptoria tritici, 504 h, read-out: Test D disease control rating
From the text: as §1

[3] = system: Colletotrichum orbiculare; experiment: Test I: cucumber Colletotrichum anthracnose, preventive spray on cucumber seedlings; conditions: 100 = 100% disease control, 0 = no control relative to controls; for pest or weed control at 200 ppm: Colletotrichum orbiculare, 144 h, read-out: Test I disease control rating; for Test I disease control rating: 200 ppm
From the text: as §1, with “cucumber” for “wheat”

Fusarium graminearum = experiment: whole plant or invertebrate; conditions: for pest or weed control at 200 ppm: Fusarium graminearum, in Triticum aestivum, 192 h, read-out: Test E disease control rating; for Test E disease control rating: 200 ppm, 100 = 100% disease control, 0 = no control relative to controls

COCCC(C)Nc1nccc(-c2ccnc(Nc3cccc(F)c3)c2)n1 (centres unmarked) [Compound 84, 4-[2-[(3-fluorophenyl)amino]-4-pyridinyl]-N-(3-methoxy-1-methylpropyl)-2-pyrimidinamine]
pest or weed control at 200 ppm [1]: 91%
pest or weed control at 200 ppm (Botrytis cinerea): 99%
pest or weed control at 200 ppm (Septoria nodorum): 99%
pest or weed control at 200 ppm [2]: 28%
pest or weed control at 200 ppm (Septoria tritici): 59%
pest or weed control at 200 ppm [3]: 0%
pest or weed control at 200 ppm (Fusarium graminearum): 0%

COCC(C)Nc1nccc(-c2ccnc(Nc3c(C)ccc4ccccc34)c2)n1 (centres unmarked) [Compound 86]
Test B disease control rating [1]: 55%
Test F disease control rating (Botrytis cinerea): 96%
Test C disease control rating (Septoria nodorum): 94%
Test A disease control rating [2]: 27%
Test D disease control rating (Septoria tritici): 0%
Test I disease control rating [3]: 0%
Test E disease control rating (Fusarium graminearum): 0%

COCCCNc1nccc(-c2ccnc(Nc3cccc(F)c3)c2)n1 [Compound 64]
Test B disease control rating [1]: 94%
Test F disease control rating (Botrytis cinerea): 0%
Test C disease control rating (Septoria nodorum): 97%
Test A disease control rating [2]: 0%
Test D disease control rating (Septoria tritici): 95%
Test I disease control rating [3]: 92%
Test E disease control rating (Fusarium graminearum): 0%

C[C@H](CO)Nc1nccc(-c2ccnc(Nc3cccc(F)c3)c2)n1 [Compound 57]
Test B disease control rating [1]: 95%
Test F disease control rating (Botrytis cinerea): 0%
Test C disease control rating (Septoria nodorum): 51%
Test A disease control rating [2]: 0%
Test D disease control rating (Septoria tritici): 9%
Test I disease control rating [3]: 0%
Test E disease control rating (Fusarium graminearum): 0%

COCC(C)Nc1nccc(-c2ccnc(Nc3c(Cl)cccc3C(F)(F)F)c2)n1 (centres unmarked) [Compound 97]
Test B disease control rating [1]: 97%
Test F disease control rating (Botrytis cinerea): 99%
Test C disease control rating (Septoria nodorum): 100%
Test A disease control rating [2]: 0%
Test D disease control rating (Septoria tritici): 67%
Test I disease control rating [3]: 93%
Test E disease control rating (Fusarium graminearum): 48%

Cc1ccc2ccccc2c1Nc1cc(-c2ccnc(NC3CCOCC3)n2)ccn1 [Compound 89]
Test B disease control rating [1]: 95%
Test F disease control rating (Botrytis cinerea): 99%
Test C disease control rating (Septoria nodorum): 100%
Test A disease control rating [2]: 74%
Test D disease control rating (Septoria tritici): 0%
Test I disease control rating [3]: 0%
Test E disease control rating (Fusarium graminearum): 89%

Clc1cccc(Nc2cc(-c3ccnc(N[C@H]4CCOC4)n3)ccn2)c1 [Compound 72]
Test B disease control rating [1]: 80%
Test F disease control rating (Botrytis cinerea): 0%
Test C disease control rating (Septoria nodorum): 95%
Test A disease control rating [2]: 0%
Test D disease control rating (Septoria tritici): 11%
Test I disease control rating [3]: 0%
Test E disease control rating (Fusarium graminearum): 0%

Fc1cccc(Nc2cc(-c3ccnc(NC4CCOC4)n3)ccn2)c1 (centres unmarked) [Compound 74]
Test B disease control rating [1]: 94%
Test F disease control rating (Botrytis cinerea): 48%
Test C disease control rating (Septoria nodorum): 99%
Test A disease control rating [2]: 0%
Test D disease control rating (Septoria tritici): 72%
Test I disease control rating [3]: 17%
Test E disease control rating (Fusarium graminearum): 0%

Fc1cccc(Nc2cc(-c3ccnc(NC4CC4)n3)ccn2)c1 [Compound 65]
Test B disease control rating [1]: 80%
Test F disease control rating (Botrytis cinerea): 0%
Test C disease control rating (Septoria nodorum): 96%
Test A disease control rating [2]: 46%
Test D disease control rating (Septoria tritici): 0%
Test I disease control rating [3]: 83%
Test E disease control rating (Fusarium graminearum): 0%

COCC(C)Nc1nccc(-c2ccnc(Nc3c(C)cccc3Cl)c2)n1 (centres unmarked) [Compound 76, 4-[2-[(2-chloro-6-methylphenyl)amino]-4-pyridinyl]-N-(2-methoxy-1-methylethyl)-2-pyrimidinamine]
pest or weed control at 200 ppm [1]: 99%
pest or weed control at 200 ppm (Botrytis cinerea): 97%
pest or weed control at 200 ppm (Septoria nodorum): 99%
pest or weed control at 200 ppm [2]: 36%
pest or weed control at 200 ppm (Septoria tritici): 87%
pest or weed control at 200 ppm [3]: 72%
pest or weed control at 200 ppm (Fusarium graminearum): 93%

COCC(C)Nc1nccc(-c2ccnc(Nc3cccc(C(=O)OC)c3)c2)n1 (centres unmarked) [Compound 52]
Test B disease control rating [1]: 94%
Test F disease control rating (Botrytis cinerea): 98%
Test C disease control rating (Septoria nodorum): 90%
Test A disease control rating [2]: 0%
Test D disease control rating (Septoria tritici): 31%
Test I disease control rating [3]: 0%
Test E disease control rating (Fusarium graminearum): 0%

COCC(C)Nc1nccc(-c2ccnc(Nc3ccnc(Cl)c3)c2)n1 (centres unmarked) [Compound 54]
Test B disease control rating [1]: 96%
Test F disease control rating (Botrytis cinerea): 85%
Test C disease control rating (Septoria nodorum): 64%
Test A disease control rating [2]: 0%
Test D disease control rating (Septoria tritici): 35%
Test I disease control rating [3]: 0%
Test E disease control rating (Fusarium graminearum): 0%

FC(F)(F)c1cccc(Cl)c1Nc1cc(-c2ccnc(NC3CCOCC3)n2)ccn1 [Compound 98]
Test B disease control rating [1]: 99%
Test F disease control rating (Botrytis cinerea): 91%
Test C disease control rating (Septoria nodorum): 99%
Test A disease control rating [2]: 89%
Test D disease control rating (Septoria tritici): 83%
Test I disease control rating [3]: 0%
Test E disease control rating (Fusarium graminearum): 97%

Fc1cccc(Nc2cc(-c3ccnc(NCC4CCCO4)n3)ccn2)c1 (centres unmarked) [Compound 83, 4-[2-[(3-fluorophenyl)amino]-4-pyridinyl]-N-[(tetrahydro-2-furanyl)methyl]-2-pyrimidinamine]
pest or weed control at 200 ppm [1]: 95%
pest or weed control at 200 ppm (Botrytis cinerea): 53%
pest or weed control at 200 ppm (Septoria nodorum): 99%
pest or weed control at 200 ppm [2]: 0%
pest or weed control at 200 ppm (Septoria tritici): 92%
pest or weed control at 200 ppm [3]: 0%
pest or weed control at 200 ppm (Fusarium graminearum): 0%

Cc1cccc(Cl)c1Nc1cc(-c2ccnc(NC3CCOCC3)n2)ccn1 [Compound 80, 4-[2-[(2-chloro-6-methylphenyl)amino]-4-pyridinyl]-N-(tetrahydro-2H-pyran-4-yl)-2-pyrimidinamine]
pest or weed control at 200 ppm [1]: 100%
pest or weed control at 200 ppm (Botrytis cinerea): 99%
pest or weed control at 200 ppm (Septoria nodorum): 99%
pest or weed control at 200 ppm [2]: 86%
pest or weed control at 200 ppm (Septoria tritici): 93%
pest or weed control at 200 ppm [3]: 98%
pest or weed control at 200 ppm (Fusarium graminearum): 98%

Fc1cccc(Nc2ncnc(-c3ccnc(NC4CCOCC4)n3)n2)c1 [Compound 3]
Test B disease control rating [1]: 96%
Test F disease control rating (Botrytis cinerea): 0%
Test C disease control rating (Septoria nodorum): 100%
Test A disease control rating [2]: 64%
Test D disease control rating (Septoria tritici): 67%
Test I disease control rating [3]: 94%
Test E disease control rating (Fusarium graminearum): 27%

CSCCNc1nccc(-c2ccnc(Nc3cccc(F)c3)c2)n1 [Compound 55]
Test B disease control rating [1]: 95%
Test F disease control rating (Botrytis cinerea): 0%
Test C disease control rating (Septoria nodorum): 78%
Test A disease control rating [2]: 0%
Test D disease control rating (Septoria tritici): 20%
Test I disease control rating [3]: 0%
Test E disease control rating (Fusarium graminearum): 0%

COCC(C)Nc1nccc(-c2ccnc(Nc3c(C)cccc3OC)c2)n1 (centres unmarked) [Compound 85]
Test B disease control rating [1]: 94%
Test F disease control rating (Botrytis cinerea): 93%
Test C disease control rating (Septoria nodorum): 99%
Test A disease control rating [2]: 56%
Test D disease control rating (Septoria tritici): 0%
Test I disease control rating [3]: 96%
Test E disease control rating (Fusarium graminearum): 0%

Fc1cccc(Nc2cc(-c3ccnc(N[C@H]4CCOC4)n3)ccn2)c1 [Compound 71]
Test B disease control rating [1]: 94%
Test F disease control rating (Botrytis cinerea): 77%
Test C disease control rating (Septoria nodorum): 99%
Test A disease control rating [2]: 0%
Test D disease control rating (Septoria tritici): 25%
Test I disease control rating [3]: 46%
Test E disease control rating (Fusarium graminearum): 0%

CCNc1nccc(-c2ccnc(Nc3cccc(F)c3)c2)n1 [Compound 61]
Test B disease control rating [1]: 96%
Test F disease control rating (Botrytis cinerea): 0%
Test C disease control rating (Septoria nodorum): 99%
Test A disease control rating [2]: 0%
Test D disease control rating (Septoria tritici): 32%
Test I disease control rating [3]: 0%
Test E disease control rating (Fusarium graminearum): 0%
